For 1 compound, MIC results are on record in US4416817A, “3-Methoxy-2-oxoazetidine derivatives and their production” (Takeda Chemical Industries, Ltd., priority 1979, dated 1983).

Holding throughout (assay): Antimicrobial spectrum, minimum inhibitory concentration
Type in all cases: cell-based

The subject of test [1] is Pseudomonas aeruginosa U 31. As to conditions: U31, medium TSA. The text has this: (§1) TSA = Trypticase soy agar [Baltimore Biologicals
(§2) BTSA = Blood trypticase soy agar

Test [2] concerns Streptococcus pyogenes E-14. The following applies: E14, medium B-TSA (Blood trypticase soy agar).
Excerpt: as §1, §2

For test [3], the system named is Candida albicans TA. As to conditions: medium TSA.
Excerpt: as §1, §2

Test [4] deals with Streptococcus pyogenes S-8. As to conditions: S8, medium B-TSA.
Excerpt: as §1, §2

For test [5], the system named is Corynebacterium diphtheriae Toronto. As to conditions: medium B-TSA.
Excerpt: as §1, §2

Test [6] concerns Staphylococcus aureus FDA209P. The following applies: medium TSA (Trypticase soy agar).
Excerpt: as §1, §2

Test [7] deals with Escherichia coli NIHJ JC-2. The following applies: NIHJJC2, medium TSA.
Excerpt: as §1, §2

Test [8] relates to Klebsiella pneumoniae DT. The following applies: medium TSA.
Excerpt: as §1, §2

Test [9] relates to Enterobacter cloacae IFO 12937. As to conditions: IFO12937, medium TSA.
Excerpt: as §1, §2

The test system of test [10] is Escherichia coli O-111. The following applies: O111, medium TSA.
Excerpt: as §1, §2

Test [11] relates to Pseudomonas morganii IFO 3168. As to conditions: IFO3168, medium TSA.
Excerpt: as §1, §2

Test [12] has as its system Proteus vulgaris IFO 3988. As to conditions: IFO3988, medium TSA.
Excerpt: as §1, §2

The test system of test [13] is Serratia marcescens IFO 12648. The following applies: IFO12648, medium TSA.
Excerpt: as §1, §2

Test [14] concerns Proteus mirabilis IFO 3849. As to conditions: IFO3849, medium TSA.
Excerpt: as §1, §2

Consider `CCN1CCN(C(=O)N[C@@H](C(=O)NC2(OC)CN(S(=O)(=O)O)C2=O)c2ccccc2)C(=O)C1=O` (single isomer, unassigned) [Compound, sodium 3-[D(-)-2-(4-ethyl-2,3-dioxo-1-piperazinocarboxamido)phenylacetamido]-3-methoxy-2-oxoazetidine-1-sulfonate], for which the MIC (usually the lowest concentration that inhibits growth of the organism) in test [1] is above 100 µg/mL; in test [2], 50 µg/mL; in test [3], above 100 µg/mL; in [4], 50 µg/mL; in test [5], 50 µg/mL; in [6] it was 100 µg/mL. Besides, the MIC in [7] is 50 µg/mL; in test [8], 12.5 µg/mL; in [9], above 100 µg/mL; in test [10] it was 12.5 µg/mL; in test [11] it was above 100 µg/mL; in [12], 12.5 µg/mL. In addition, the MIC in test [13] and in [14] was 50 µg/mL each time.
